Measured values: the supplement of paper PMC4862054

Experiments:
[1] = test system: MDA-MB-468; details: 72 h
Outline: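 The plates used were 384-well plates holding compound at 5 concentrations in 10-fold steps across a compound-specific 10,000-fold range, into which breast cancer cell lines were seeded in 20 µl suspension. Following 72 h incubation, CellTox Green fluorescence was read at 485/520 nm, and CellTiter-Glo luminescence was read after 10 min at room temperature. Normalisation on each plate used 0.1 % DMSO and a positive kill control. Dose-response curves gave the EC50, which was censored at the top concentration.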

[2] = test system: BT-474; assay: normalised viability (% of control), CellTiter-Blue; higher = more viable cells (about 100 = DMSO control); details: incubation time: 72 h
Outline: (§1)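 384-well plates were pre-loaded with compound in 5 µl medium before 20 µl of breast cancer cell suspension was seeded. Following 72 h incubation, 2.5 µl CellTiter-Blue reagent was added for 2 h at 37 °C. Fluorescence was read at 560/590 nm and plates were normalised to vehicle (100) and a positive kill control (0), checked by Z'-factor. Normalised viability is reported at a single listed concentration of the series.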

[3] = test system: BT-549; assay: as above; details: incubation time: 72 h
Outline: as §1

[4] = test system: CAL-120; assay: as above; details: incubation time: 72 h
Outline: as §1

[5] = test system: CAL-148; assay: as above; details: incubation time: 72 h
Outline: as §1

[6] = test system: CAL-51; assay: as above; details: incubation time: 72 h
Outline: as §1

[7] = test system: CAL-85-1; assay: as above; details: incubation time: 72 h
Outline: as §1

[8] = test system: DU-4475; assay: as above; details: incubation time: 72 h
Outline: as §1

[9] = test system: HCC1143; assay: as above; details: incubation time: 72 h
Outline: as §1

[10] = test system: HCC1599; assay: as above; details: incubation time: 72 h
Outline: as §1

[11] = test system: HCC1937; assay: as above; details: incubation time: 72 h
Outline: as §1

[12] = test system: HDQ-P1; assay: as above; details: incubation time: 72 h
Outline: as §1

[13] = test system: Hs578T; assay: as above; details: incubation time: 72 h
Outline: as §1

[14] = test system: MDA-MB-231; assay: as above; details: incubation time: 72 h
Outline: as §1

[15] = test system: MDA-MB-436; assay: as above; details: incubation time: 72 h
Outline: as §1

[16] = test system: MDA-MB-453; assay: as above; details: incubation time: 72 h
Outline: as §1

[17] = test system: MDA-MB-468; assay: as above; details: incubation time: 72 h
Outline: as §1

[18] = test system: MFM-223; assay: as above; details: incubation time: 72 h
Outline: as §1

[19] = test system: SK-BR-3; assay: as above; details: incubation time: 72 h
Outline: as §1

Question: How did the “EC50, CellTiter-Glo” value [1] turn out when N#Cc1ccc(COC[C@H]2O[C@@H](n3c(NCc4ccc(Cl)c(Cl)c4)nc4c(N)ncnc43)[C@H](O)[C@@H]2O)cc1 was run?
Answer: 2.27 µM

Question: What about the normalised viability ([2]; 10 nM) of the same compound?
Answer: 135%

Question: And the normalised viability ([2]; 1000 nM)?
Answer: 95%

Question: What about the normalised viability ([2]; 10000 nM) of the same compound?
Answer: 89.5%

Question: What about the normalised viability ([3]; 10 nM) of the same compound?
Answer: 87.7%

Question: And the normalised viability ([3]; 1000 nM)?
Answer: 84%

Question: What about the normalised viability ([3]; 10000 nM) of the same compound?
Answer: 34.4%

Question: And the normalised viability ([4]; 10 nM)?
Answer: 103%

Question: And the normalised viability ([4]; 1000 nM)?
Answer: 110%

Question: And the normalised viability ([4]; 10000 nM)?
Answer: 62.4%

Question: What about the normalised viability ([5]; 3 nM) of the same compound?
Answer: 101%

Question: What about the normalised viability ([5]; 30 nM) of the same compound?
Answer: 105%

Question: What about the normalised viability ([5]; 100 nM) of the same compound?
Answer: 99.3%

Question: What about the normalised viability ([6]; 3 nM) of the same compound?
Answer: 118%

Question: And the normalised viability ([6]; 30 nM)?
Answer: 110%

Question: What about the normalised viability ([6]; 100 nM) of the same compound?
Answer: 110%

Question: And the normalised viability ([7]; 3 nM)?
Answer: 108%

Question: And the normalised viability ([7]; 30 nM)?
Answer: 107%

Question: And the normalised viability ([7]; 100 nM)?
Answer: 110%

Question: What about the normalised viability ([8]; 3 nM) of the same compound?
Answer: 97.8%

Question: And the normalised viability ([8]; 30 nM)?
Answer: 88.7%

Question: And the normalised viability ([8]; 100 nM)?
Answer: 113%

Question: What about the normalised viability ([9]; 10 nM) of the same compound?
Answer: 90.1%

Question: What about the normalised viability ([9]; 1000 nM) of the same compound?
Answer: 87.4%

Question: What about the normalised viability ([9]; 10000 nM) of the same compound?
Answer: 60.8%

Question: What about the normalised viability ([10]; 10 nM) of the same compound?
Answer: 97.3%

Question: What about the normalised viability ([10]; 1000 nM) of the same compound?
Answer: 65.6%

Question: And the normalised viability ([10]; 10000 nM)?
Answer: 22%

Question: And the normalised viability ([11]; 10 nM)?
Answer: 135%

Question: And the normalised viability ([11]; 1000 nM)?
Answer: 78.5%

Question: And the normalised viability ([11]; 10000 nM)?
Answer: 71.8%

Question: What about the normalised viability ([12]; 3 nM) of the same compound?
Answer: 115%

Question: And the normalised viability ([12]; 30 nM)?
Answer: 104%

Question: And the normalised viability ([12]; 100 nM)?
Answer: 105%

Question: What about the normalised viability ([13]; 10 nM) of the same compound?
Answer: 104%

Question: What about the normalised viability ([13]; 1000 nM) of the same compound?
Answer: 99.3%

Question: What about the normalised viability ([13]; 10000 nM) of the same compound?
Answer: 73.8%

Question: What about the normalised viability ([14]; 10 nM) of the same compound?
Answer: 128%

Question: What about the normalised viability ([14]; 1000 nM) of the same compound?
Answer: 77.3%

Question: And the normalised viability ([14]; 10000 nM)?
Answer: 57.2%

Question: And the normalised viability ([15]; 10 nM)?
Answer: 95.2%

Question: What about the normalised viability ([15]; 1000 nM) of the same compound?
Answer: 84.8%

Question: And the normalised viability ([15]; 10000 nM)?
Answer: 50.9%

Question: What about the normalised viability ([16]; 3 nM) of the same compound?
Answer: 124%

Question: What about the normalised viability ([16]; 30 nM) of the same compound?
Answer: 95.7%

Question: And the normalised viability ([16]; 100 nM)?
Answer: 91.4%

Question: And the normalised viability ([17]; 10 nM)?
Answer: 108%

Question: And the normalised viability ([17]; 1000 nM)?
Answer: 89.7%

Question: What about the normalised viability ([17]; 10000 nM) of the same compound?
Answer: 68.7%

Question: What about the normalised viability ([18]; 10 nM) of the same compound?
Answer: 93%

Question: And the normalised viability ([18]; 1000 nM)?
Answer: 101%

Question: And the normalised viability ([18]; 10000 nM)?
Answer: 93.6%

Question: And the normalised viability ([19]; 10 nM)?
Answer: 115%

Question: And the normalised viability ([19]; 1000 nM)?
Answer: 102%

Question: What about the normalised viability ([19]; 10000 nM) of the same compound?
Answer: 37.3%

Question: With COc1cc(O)c2c(c1)/C=C/C[C@H](O)[C@H](O)C(=O)/C=C\C[C@H](C)OC2=O [(5Z)-7-Oxozeaenol] as the compound, how does the “EC50, CellTiter-Glo” value [1] read?
Answer: 0.953 µM

Question: Which results are given for COc1cc(OC2CCN(C)CC2)ccc1Nc1ncc2c(n1)n(C1CCCC1)c(=O)n2C [AZ 3146]?
Answer: EC50, CellTiter-Glo [1]: 6.65 µM; normalised viability ([2]; 10 nM): 110%; normalised viability ([2]; 1000 nM): 96.2%; normalised viability ([2]; 10000 nM): 122%; normalised viability ([3]; 10 nM): 75.4%; normalised viability ([3]; 1000 nM): 89.5%; normalised viability ([3]; 10000 nM): 62%; normalised viability ([4]; 10 nM): 115%; normalised viability ([4]; 1000 nM): 109%; normalised viability ([4]; 10000 nM): 76.5%; normalised viability ([5]; 3 nM): 111%; normalised viability ([5]; 30 nM): 102%; normalised viability ([5]; 100 nM): 115%; normalised viability ([6]; 3 nM): 97.5%; normalised viability ([6]; 30 nM): 88.7%; normalised viability ([6]; 100 nM): 87.8%; normalised viability ([7]; 3 nM): 111%; normalised viability ([7]; 30 nM): 109%; normalised viability ([7]; 100 nM): 102%; normalised viability ([8]; 3 nM): 111%; normalised viability ([8]; 30 nM): 90%; normalised viability ([8]; 100 nM): 100%; normalised viability ([9]; 10 nM): 132%; normalised viability ([9]; 1000 nM): 126%; normalised viability ([9]; 10000 nM): 95.3%; normalised viability ([10]; 10 nM): 107%; normalised viability ([10]; 1000 nM): 121%; normalised viability ([10]; 10000 nM): 111%; normalised viability ([11]; 10 nM): 124%; normalised viability ([11]; 1000 nM): 98%; normalised viability ([11]; 10000 nM): 92%; normalised viability ([12]; 3 nM): 80.8%; normalised viability ([12]; 30 nM): 100%; normalised viability ([12]; 100 nM): 118%; normalised viability ([13]; 10 nM): 111%; normalised viability ([13]; 1000 nM): 109%; normalised viability ([13]; 10000 nM): 80.1%; normalised viability ([14]; 10 nM): 96.5%; normalised viability ([14]; 1000 nM): 82.3%; normalised viability ([14]; 10000 nM): 45.8%; normalised viability ([15]; 10 nM): 102%; normalised viability ([15]; 1000 nM): 94.4%; normalised viability ([15]; 10000 nM): 85.6%; normalised viability ([16]; 3 nM): 96%; normalised viability ([16]; 30 nM): 97.7%; normalised viability ([16]; 100 nM): 85.3%; normalised viability ([17]; 10 nM): 109%; normalised viability ([17]; 1000 nM): 103%; normalised viability ([17]; 10000 nM): 53.3%; normalised viability ([18]; 10 nM): 102%; normalised viability ([18]; 1000 nM): 102%; normalised viability ([18]; 10000 nM): 84.4%; normalised viability ([19]; 10 nM): 104%; normalised viability ([19]; 1000 nM): 86.8%; normalised viability ([19]; 10000 nM): 74.5%

Question: With CNC(=O)c1cccc(-c2ccc3c(N4CCOC[C@@H]4C)nc(N4CCOC[C@@H]4C)nc3n2)c1 [AZD2014] as the compound, how does the “EC50, CellTiter-Glo” value [1] read?
Answer: 0.497 µM
